From US20050228016A1, “TETRAHYDROQUINOLINES FOR MODULATING THE EXPRESSION OF EXOGENOUS GENES VIA AN ECDYSONE RECEPTOR COMPLEX” (priority 2002, published 2005)

target: T1, Gal4DBD/AaEcR (DEF) (Aedes aegypti, UniProt P49880); assay: cell-based; type: cell-based; settings: 33 μM; 3T3 cells; 48 h; average of two wells
T1 construct: The wildtype D, E, and F domains from mosquito Aedes aegypti EcR; expressed in transfected cells; host or cells: 3T3 cells
Description: 3T3 cells were trypsinized and plated at 2.5×10^3 cells/well on a 96-well plate. After incubation for 24 h at 37° C. under 5% CO2, cells were transfected with the Gal4DBD/AaEcR (DEF) gene expression cassette and the reporter plasmid, pFRLuc, containing a 5× GAL4 response element and the firefly luciferase gene in serum free media using Superfect (Qiagen). After transfection for 4 h at 37° C., the cells were treated with ligand in serum media. […] Single dose testing was performed at 33 μM.

T1 sequence (P28704 286-520 A311G/G315S/G445S/I449V): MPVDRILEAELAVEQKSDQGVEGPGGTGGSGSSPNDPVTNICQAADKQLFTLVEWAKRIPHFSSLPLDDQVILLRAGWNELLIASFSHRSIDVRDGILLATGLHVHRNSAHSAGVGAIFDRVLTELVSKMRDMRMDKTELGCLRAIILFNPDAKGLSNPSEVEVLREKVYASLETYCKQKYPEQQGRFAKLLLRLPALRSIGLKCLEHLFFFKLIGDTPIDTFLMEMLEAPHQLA
T1 sequence (P49880 405-776): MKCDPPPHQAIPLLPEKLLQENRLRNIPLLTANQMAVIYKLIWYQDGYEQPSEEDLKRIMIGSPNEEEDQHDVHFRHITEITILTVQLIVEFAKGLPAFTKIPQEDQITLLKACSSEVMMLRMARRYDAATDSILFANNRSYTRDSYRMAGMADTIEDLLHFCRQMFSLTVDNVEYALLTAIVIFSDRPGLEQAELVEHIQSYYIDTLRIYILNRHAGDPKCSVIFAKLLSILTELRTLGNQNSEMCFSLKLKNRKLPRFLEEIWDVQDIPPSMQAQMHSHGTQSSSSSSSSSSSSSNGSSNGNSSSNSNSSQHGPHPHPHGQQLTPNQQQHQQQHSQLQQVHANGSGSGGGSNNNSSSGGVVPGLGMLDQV

First: Cc1ccc(C(=O)N2c3ccccc3C(Nc3cccc(C)c3)CC2C)cc1 (mixture of isomers) [Compound I-44]
Second: COc1cccc(NC2CC(C)N(C(=O)c3ccc(C)cc3)c3ccccc32)c1 (mixture of isomers) [Compound I-46]
The “Fold Induction Average, AA_3T3V1 Assay 33 μM” value (from here on “Fold Induction Average”) of the first is higher: 26 fold for the first, 8 fold for the second.

Compared with `Cc1ccc(C(=O)N2c3cc(Cl)ccc3C(Nc3ccc(F)cc3)CC2C)cc1F` (mixture of isomers) [Compound I-48], `CC1CC(Nc2ccc(F)cc2)c2cc(F)ccc2N1C(=O)c1ccc(Cl)c(F)c1` (stereo not shown) [Compound I-115] is higher in “Fold Induction Average” value: 19 fold for the first, 643 fold for the second.

Going from `CCCCCCCC(=O)N1c2ccccc2[C@@H](Nc2ccccc2)C[C@@H]1C` (relative stereo) [Compound I-2] to `CCCCCCCCC(=O)N1c2ccccc2[C@@H](Nc2ccccc2)C[C@@H]1C` (relative stereo) [Compound I-127], the “Fold Induction Average” value falls from 49 fold to 22 fold.

Compared with `CCCCC(=O)N1c2ccccc2[C@@H](Nc2ccccc2)C[C@@H]1C` (relative stereo) [Compound I-3], `CC1CC(Nc2ccccc2)c2ccccc2N1C(=O)Cc1ccccc1` (stereo not shown) [Compound I-130] is lower in “Fold Induction Average” value: 252 fold for the first, 1 fold for the second.

Going from `C[C@H]1C[C@@H](Nc2ccccc2)c2ccccc2N1C(=O)c1ccc(F)c(F)c1` (relative stereo) [Compound I-18] to `C[C@H]1C[C@@H](Nc2ccccc2)c2ccccc2N1C(=O)c1ccc(C(F)(F)F)c(F)c1` (relative stereo) [Compound I-20], the “Fold Induction Average” value falls from 83 fold to 47 fold.

Compared with `C[C@H]1C[C@@H](Nc2ccccc2)c2ccccc2N1C(=O)c1ccc(Cl)cc1` (relative stereo) [Compound I-29], `CCc1ccc(C(=O)N2c3ccccc3C(Nc3ccccc3)CC2C)cc1` (stereo not shown) [Compound I-59] is lower in “Fold Induction Average” value: 61 fold for the first, 4 fold for the second.

First: COC(=O)c1ccc(C(=O)N2c3ccccc3[C@H](Nc3ccccc3)C[C@@H]2C)cc1 (relative stereo) [Compound I-30]
Second: COc1cccc(C(=O)N2c3ccccc3C(Nc3ccccc3)CC2C)c1 (stereo not shown) [Compound I-200]
The “Fold Induction Average” value of the first is lower: 9 fold for the first, 212 fold for the second.

Compared with `Cc1ccc(N[C@H]2C[C@H](C)N(C(=O)Nc3cccc(Cl)c3)c3ccc(C)cc32)cc1` (relative stereo) [Compound I-218], `Cc1ccc(NC(=O)N2c3ccc(C)cc3[C@@H](Nc3ccc(C)cc3)C[C@@H]2C)cc1` (relative stereo) [Compound I-219] is lower in “Fold Induction Average” value: 6 fold for the first, 3 fold for the second.

Going from `C[C@H]1C[C@H](Nc2ccc(F)cc2)c2cc(F)ccc2N1C(=O)Nc1ccccc1` (relative stereo) [Compound I-221] to `C[C@H]1C[C@H](Nc2ccc(F)cc2)c2cc(F)ccc2N1C(=O)Nc1cccc(Cl)c1` (relative stereo) [Compound I-223], the “Fold Induction Average” value rises from 1027 fold to 1414 fold.

First: C[C@H]1C[C@H](Nc2ccc(F)cc2)c2cc(F)ccc2N1C(=O)Nc1ccc(Cl)cc1 (relative stereo) [Compound I-222]
Second: Cc1ccc(NC(=O)N2c3ccc(F)cc3[C@@H](Nc3ccc(F)cc3)C[C@@H]2C)cc1 (relative stereo) [Compound I-224]
The “Fold Induction Average” value of the first is lower: 939 fold for the first, 1245 fold for the second.

Going from `Cc1cccc(NC(=O)N2c3ccc(F)cc3[C@@H](Nc3ccc(F)cc3)C[C@@H]2C)c1` (relative stereo) [Compound I-225] to `Cc1cccc(C(=O)N2c3ccc(F)cc3C(Nc3ccc(F)cc3)CC2C)c1` (stereo not shown) [Compound I-206], the “Fold Induction Average” value falls from 1561 fold to 142 fold.

Going from `Cc1ccc(NC2CC(C)N(C(=O)c3ccc(Cl)cc3)c3ccc(C)cc32)cc1` (stereo not shown) [Compound I-32] to `Cc1ccc(NC2CC(C)N(C(=O)c3ccc(C)cc3)c3ccc(C)cc32)cc1` (stereo not shown) [Compound I-99], the “Fold Induction Average” value rises from 1 fold to 2 fold.

Compared with `Cc1ccc(NC2CC(C)N(C(=O)c3ccc(C(F)(F)F)c(F)c3)c3ccc(C)cc32)cc1` (stereo not shown) [Compound I-49], `Cc1ccc(NC2CC(C)N(C(=O)c3cccc(F)c3)c3ccc(C)cc32)cc1` (stereo not shown) [Compound I-174] is lower in “Fold Induction Average” value: 3 fold for the first, 1 fold for the second.

Compared with `Cc1ccc(NC2CC(C)N(C(=O)c3ccccc3F)c3ccc(C)cc32)cc1` (stereo not shown) [Compound I-51], `Cc1ccc(NC2CC(C)N(C(=O)c3ccccc3C)c3ccc(C)cc32)cc1` (stereo not shown) [Compound I-52] is higher in “Fold Induction Average” value: 4 fold for the first, 19 fold for the second.

Going from `Cc1ccc(NC2CC(C)N(C(=O)c3ccccc3)c3ccc(C)cc32)cc1` (stereo not shown) [Compound I-100] to `Cc1ccc(NC2CC(C)N(C(=O)c3cccc(F)c3)c3ccc(C)cc32)cc1` (stereo not shown) [Compound I-203], the “Fold Induction Average” value rises from 2 fold to 3 fold.

Compared with `CCc1c(OC)cccc1C(=O)N1c2ccc(C)cc2C(Nc2ccc(C)cc2)CC1C` (stereo not shown) [Compound I-112], `CCc1c(OC)cccc1C(=O)N1c2ccc(F)cc2C(Nc2ccc(F)cc2)CC1C` (stereo not shown) [Compound I-117] is higher in “Fold Induction Average” value: 194 fold for the first, 1256 fold for the second.

Compared with `CC1CC(Nc2ccc(F)cc2)c2cc(F)ccc2N1C(=O)c1ccno1` (stereo not shown) [Compound I-114], `CC1CC(Nc2ccc(F)cc2)c2cc(F)ccc2N1C(=O)c1ccnc(Cl)c1` (stereo not shown) [Compound I-116] is lower in “Fold Induction Average” value: 1421 fold for the first, 1100 fold for the second.

Compared with `CC1CC(Nc2ccccc2)c2ccccc2N1C(=O)C=Cc1ccco1` (stereo not shown) [Compound I-121], `CC1CC(Nc2ccccc2)c2ccccc2N1C(=O)c1ccco1` (stereo not shown) [Compound I-139] is lower in “Fold Induction Average” value: 81 fold for the first, 1 fold for the second.

Going from `CC1CC(Nc2ccccc2)c2ccccc2N1C(=O)c1cccs1` (stereo not shown) [Compound I-122] to `Cc1cccc(C(=O)N2c3ccccc3C(Nc3ccccc3)CC2C)c1` (stereo not shown) [Compound I-198], the “Fold Induction Average” value rises from 5 fold to 135 fold.

`CC(=O)N(c1ccccc1)C1CC(C)N(C(=O)c2ccc(C(C)(C)C)cc2)c2ccccc21` (stereo not shown) [Compound I-123] and `CC(=O)N1c2ccccc2C(N(C(=O)c2ccc(C)cc2)c2ccccc2)CC1C` (stereo not shown) [Compound I-132] are the same in “Fold Induction Average” value: 1 fold for the first, 1 fold for the second.

`CC(=O)N1c2ccccc2C(N(C(=O)c2ccc(F)cc2)c2ccccc2)CC1C` (stereo not shown) [Compound I-128] and `CC1CC(N(C(=O)c2cccc(F)c2)c2ccccc2)c2ccccc2N1C(=O)c1cccc(F)c1` (stereo not shown) [Compound I-136] are the same in “Fold Induction Average” value: 1 fold for the first, 1 fold for the second.

First: CC1CC(Nc2ccccc2)c2ccccc2N1C(=O)COc1ccccc1Cl (stereo not shown) [Compound I-129]
Second: CC1CC(Nc2ccccc2)c2ccccc2N1C(=O)Nc1ccccc1 (stereo not shown) [Compound I-176]
The “Fold Induction Average” value of the first is lower: 1 fold for the first, 268 fold for the second.

`CCCCCC(=O)N(c1ccccc1)C1CC(C)N(C(=O)c2cccc(OC)c2)c2ccccc21` (stereo not shown) [Compound I-133] and `CCCCCC(=O)N1c2ccccc2C(N(C(=O)c2ccccc2F)c2ccccc2)CC1C` (stereo not shown) [Compound I-186] are the same in “Fold Induction Average” value: 1 fold for the first, 1 fold for the second.

Going from `CCOC(=O)C(=O)N1c2ccccc2C(N(C(=O)C(=O)OCC)c2ccccc2)CC1C` (stereo not shown) [Compound I-145] to `CC1CC(N(C(=O)C(F)(F)F)c2ccccc2)c2ccccc2N1C(=O)C(F)(F)F` (stereo not shown) [Compound I-182], the “Fold Induction Average” value falls from 47 fold to 1 fold.

First: COc1ccc(C=CC(=O)N2c3ccccc3C(N(C(C)=O)c3ccccc3)CC2C)cc1 (stereo not shown) [Compound I-150]
Second: COc1ccc(C=CC(=O)N2c3ccccc3C(Nc3ccccc3)CC2C)cc1 (stereo not shown) [Compound I-177]
The “Fold Induction Average” value of the first is lower: 1 fold for the first, 126 fold for the second.

`COc1ccc(C(=O)N2c3ccccc3C(N(C(=O)c3ccc(OC)cc3)c3ccccc3)CC2C)cc1` (stereo not shown) [Compound I-153] and `Cc1cccc(C(=O)N2c3ccccc3C(N(C(=O)c3cccc(C)c3)c3ccccc3)CC2C)c1` (stereo not shown) [Compound I-164] are the same in “Fold Induction Average” value: 1 fold for the first, 1 fold for the second.

`CCCc1ccc(C(=O)N2c3c(C)cccc3C(Nc3ccccc3C)CC2C)cc1` (stereo not shown) [Compound I-157] and `Cc1ccc(C(=O)N2c3c(C)cccc3C(Nc3ccccc3C)CC2C)cc1` (stereo not shown) [Compound I-187] are the same in “Fold Induction Average” value: 1 fold for the first, 1 fold for the second.

Compared with `CC1CC(Nc2ccccc2)c2ccccc2N1C(=O)CN1C(=O)CCC1=O` (stereo not shown) [Compound I-167], `CC1CC(Nc2ccccc2)c2ccccc2N1C(=O)c1cccc(F)c1` (stereo not shown) [Compound I-199] is higher in “Fold Induction Average” value: 1 fold for the first, 147 fold for the second.

Going from `CC(=O)N(c1ccc(F)cc1)C1CC(C)N(C(=O)c2ccc(C)c(F)c2)c2ccc(F)cc21` (stereo not shown) [Compound I-195] to `CC1CC(Nc2ccc(F)cc2)c2cc(F)ccc2N1C(=O)c1cccc(F)c1` (stereo not shown) [Compound I-207], the “Fold Induction Average” value rises from 1 fold to 108 fold.

First: CC1CC(Nc2ccccc2)c2ccccc2N1C(=O)c1cccc(C(F)(F)F)c1 (stereo not shown) [Compound I-201]
Second: COc1cccc(C(=O)N2c3ccc(C)cc3C(Nc3ccc(C)cc3)CC2C)c1 (stereo not shown) [Compound I-204]
The “Fold Induction Average” value of the first is higher: 71 fold for the first, 1 fold for the second.

same assay, conditions: NIH3T3, read-out: Fold Induction Average, AA_3T3V1 Assay 33 μM

For `Cc1ccc(NC(=O)N2c3ccccc3[C@@H](Nc3ccccc3)C[C@H]2C)cc1` (relative stereo) [Compound I-214, cis-2-methyl-1-(4-methylphenylaminocarbonyl)-4-(4-phenylamino)-1,2,3,4-tetrahydroquinoline], the fold induction at 33 µM was 820.
